We go through 1 compound from patent publication US10350309B2, “Methods of preparing ophthalmic formulations and uses of same” (Cognoptix, Inc., priority 2013, dated 2019).

Data set [1] can be described thus: Microscopic examination of mixture after ball milling agitation (particle size, uniformity). It is filed as physicochemical. The following applies: heavy mineral oil, ball milling with 5 mm grinding media beads. How it is done:
Microscopic examination of mixtures after ball milling can be used to assess uniformity and to estimate the particle size of the fluorescent molecular rotor compounds. Microscopic examination of the mixtures containing Compound 11 were performed using a compound optical microscope with a calibrated eyepiece micrometer, or reticle. For example, the eyepiece micrometer, reticle, can be aligned and calibrated with the stage micrometer by aligning the zero line of the reticle with the zero line of the stage micrometer, and the ratios between the micrometers or scales can be used to determine sizes and distances.

Data set [2] is described as follows: HPLC analysis of concentration and degradation of Compound 11 in mineral oil mixtures after ball milling agitation. Format: physicochemical. As to the method: The following HPLC method was used to analyze whether the concentration of fluorescent molecular rotor compounds in mixtures of mineral oil and Compound 11 was consistent with the expected concentration of the mixture. The HPLC analysis was also used to evaluate degradation of Compound 11 in the mixture. The HPLC instrument used was a Waters 2695 Separation Module, or equivalent containing a pump capable of delivering a gradient flow rate of 1.0 mL/min or equivalent and a Waters 2487 Multiwavelength Detector, or dual wavelength detector capable of detection at 215 nm and 320 nm, or equivalent. The column used was a Waters Deltapak C18 column, 5 μm, 3.9×150 mm, (Waters Corp., Milford, Mass., Catalog No.: WAT011793). The flow rate was 1.0 mL/min with detection at a wavelength of 215 nm and a column temperature of 25° C. The injection volume used for the concentration sample evaluation was 20 μL and for the related substances sample evaluation was 50 μL. The mobile phases were A: 0.1% trifluoroacetic acid in water, C: methanol, and D: ethanol, and the gradient program shown in Table 2 was used for the HPLC method.
In a mixture sample compared to a standard sample, increased relative peak area of the related substance peak (RT of 3.8 min, Table 3) compared to the peak area of Compound 11 (RT of 8.5 min, Table 3) would indicate degradation of Compound 11. The concentration in the mixture sample of Compound 11 was determined by analyzing the HPLC peak with a retention time of 8.5 min (Table 3) compared to a standard sample of Compound 11.
However, the concentration of the mixture of Compound 11 and heavy mineral oil after ball milling agitation with YTZ® grinding media beads of an average diameter of 0.5 mm was determined by HPLC (RT of 8.5 min, Table 3) to be 4.75 mg/g as compared to an expected concentration of 48.12 mg/g (504.3 mg/10.48 g, mineral oil and Compound 11). […] The concentration as measured by HPLC of the mixture of Compound 11 and heavy mineral oil after ball milling agitation with beads of an average diameter of 5 mm was 44.9 mg/g as compared to an expected concentration of 47.98 mg/g (504.8 mg/10.52 g, mineral oil and Compound 11), which was within the acceptable range.

Consider `COCCOCCOCCOC(=O)/C(C#N)=C/c1ccc2cc(N3CCCCC3)ccc2c1` [Compound 11], for which, in data set [1], the “particle diameter by microscopic examination” value is listed as “approximately 5 microns”. Further, the “concentration of the mixture determined by HPLC” value in data set [2] (heavy mineral oil, ball milling with YTZ beads of average diameter 0.5 mm, expected 48.12 mg/g) was determined as 4.75 mg/g. Besides, the “concentration of the mixture measured by HPLC” value in data set [2] (heavy mineral oil, ball milling with beads of average diameter 5 mm, expected 47.98 mg/g) was 44.9 mg/g. The “degradation of Compound 11 based on changes in the related substance peak (RT 3.8 min)” value in data set [2] (mixture in heavy mineral oil, after ball milling agitation, HPLC) is given as “no significant degradation”. Also, the “degradation of Compound 11 as analyzed by HPLC” value in data set [2] (mixture in heavy mineral oil, ball milling agitation with YTZ 5 mm beads) is recorded as “without degradation”.
